Test results as given in patent publication US20260158017A1, “KIF18A INHIBITOR” (WIGEN BIOMEDICINE TECHNOLOGY (SHANGHAI) CO., LTD., priority 2021, published 2026).

Biological target: T1, Recombinant human KIF18A (1-467His-tagged) protein (Homo sapiens, UniProt Q8NI77)
T1 construct: Recombinant human KIF18A (1-467His-tagged) protein; His; made in house
Test: KIF18A enzyme assay (microtubule-stimulated ATPase activity, ADP-Glo)
Type: biochemical
Settings: 30 nM KIF18A, 75 μM ATP, 30 μg/mL pig microtubules; read-out: Inhibitory activity against KIF18A IC50
Procedure: In Vitro Assay of the Compounds of the Present Invention for Inhibiting Enzymatic Activity of KIF18A
KIF18A enzyme assay: The enzymatic activity of KIF18A after treatment with the compounds was measured by an assay of microtubule-stimulated ATPase activity. ADP generated from the ATPase reaction was measured in this assay. The compounds were serially diluted 2-fold in DMSO over a range of 22 concentration points. […] Concentrations of KIF18A protein, microtubules, and ATP in the reaction were optimized for a standardized homogenous enzyme assay using an ADP-Glo kinase/ATPase assay kit. A reaction buffer [(15 mM Tris, pH 7.5), 10 mM MgCl2, 0.01% PluronicF-68, 1 μM paclitaxel, and 30 μg/mL pig microtubules] was prepared. […] The resulting reaction mixture was incubated at room temperature for another 15 min. 5 μL of ADP-Glo reagent and 2.5 μL of the reaction mixture were mixed and the resulting mixture was incubated at room temperature for 40 min. 10 μL of ADP-Glo detection reagent was added and the mixture was incubated at room temperature for 40 min. Luminescence was read using a microplate reader and compared with that of the DMSO group, and then the inhibition percentages and IC50 values of the compounds were calculated.

T1 sequence (Q8NI77 1-467): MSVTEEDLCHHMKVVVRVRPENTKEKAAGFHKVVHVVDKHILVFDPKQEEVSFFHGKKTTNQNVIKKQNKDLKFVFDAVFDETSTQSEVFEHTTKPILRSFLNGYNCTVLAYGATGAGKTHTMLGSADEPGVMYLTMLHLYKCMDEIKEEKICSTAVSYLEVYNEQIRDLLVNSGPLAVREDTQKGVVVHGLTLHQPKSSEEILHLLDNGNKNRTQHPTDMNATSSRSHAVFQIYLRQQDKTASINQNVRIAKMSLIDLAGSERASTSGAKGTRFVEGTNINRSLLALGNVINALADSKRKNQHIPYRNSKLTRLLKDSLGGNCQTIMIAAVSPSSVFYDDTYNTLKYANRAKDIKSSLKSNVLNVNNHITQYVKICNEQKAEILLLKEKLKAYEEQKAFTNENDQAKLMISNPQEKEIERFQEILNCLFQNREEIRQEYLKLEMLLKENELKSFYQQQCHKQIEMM
T1 sequence (P02550 whole entry partner): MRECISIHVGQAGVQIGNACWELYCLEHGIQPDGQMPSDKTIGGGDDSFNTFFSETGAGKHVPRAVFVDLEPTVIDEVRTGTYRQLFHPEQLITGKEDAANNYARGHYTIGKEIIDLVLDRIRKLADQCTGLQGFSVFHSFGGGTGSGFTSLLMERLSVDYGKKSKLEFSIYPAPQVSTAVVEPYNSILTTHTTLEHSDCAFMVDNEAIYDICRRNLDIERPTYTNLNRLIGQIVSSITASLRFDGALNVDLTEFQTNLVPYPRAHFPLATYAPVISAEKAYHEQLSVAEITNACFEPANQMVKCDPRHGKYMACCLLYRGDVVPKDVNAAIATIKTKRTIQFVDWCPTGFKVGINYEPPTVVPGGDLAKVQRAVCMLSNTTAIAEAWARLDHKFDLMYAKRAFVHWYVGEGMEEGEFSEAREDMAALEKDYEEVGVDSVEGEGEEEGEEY
T1 sequence (P02554 whole entry partner): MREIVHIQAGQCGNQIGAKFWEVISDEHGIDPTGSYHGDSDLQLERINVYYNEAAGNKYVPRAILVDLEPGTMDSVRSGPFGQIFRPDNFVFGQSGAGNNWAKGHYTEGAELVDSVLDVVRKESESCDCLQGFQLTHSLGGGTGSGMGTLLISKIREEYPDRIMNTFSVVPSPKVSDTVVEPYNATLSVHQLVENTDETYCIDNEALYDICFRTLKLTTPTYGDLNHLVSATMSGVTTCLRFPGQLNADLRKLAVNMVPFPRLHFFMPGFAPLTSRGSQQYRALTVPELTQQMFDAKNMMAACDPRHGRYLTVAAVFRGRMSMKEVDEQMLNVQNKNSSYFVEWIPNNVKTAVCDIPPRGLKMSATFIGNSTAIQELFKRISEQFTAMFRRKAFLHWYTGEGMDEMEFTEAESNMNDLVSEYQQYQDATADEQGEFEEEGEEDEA

| Structure (SMILES) | IC50 [nM] |
| --- | --- |
| O=C(Nc1ccc([N+](=O)[O-])c(N2CCC3(CC3)C2)c1)c1cnc(S(=O)(=O)NCCO)cc1N1CCC2(CC1)CC2 [Compound 118] | ≤ 100 |
| O=C(Nc1ccc([N+](=O)[O-])c(OC2CCC2)c1)c1cnc(S(=O)(=O)NCCO)cc1N1CCC2(CC1)CC2 [Compound 119] | ≤ 100 |
| CC1(F)CCN(c2cc(NC(=O)c3cnc(S(=O)(=O)NCCO)cc3N3CCC4(CC3)CC4)ccc2[N+](=O)[O-])C1 (stereo not shown) [Compound 120] | ≤ 100 |
| O=C(Nc1ccc([N+](=O)[O-])c(N2CCC(F)CC2)c1)c1cnc(S(=O)(=O)NCCO)cc1N1CCC2(CC1)CC2 [Compound 121] | ≤ 100 |
| O=C(Nc1ccc([N+](=O)[O-])c(N2CC3CC3C2)c1)c1cnc(S(=O)(=O)NCCO)cc1N1CCC2(CC1)CC2 (stereo not shown) [Compound 122] | ≤ 100 |
| CC(C)(CO)Nc1cc(NC(=O)c2cnc(S(=O)(=O)NCCO)cc2N2CCC3(CC2)CC3)ccc1[N+](=O)[O-] [Compound 123] | ≤ 100 |
| O=C(Nc1ccc([N+](=O)[O-])c(N2CCOCC2)c1)c1cnc(S(=O)(=O)NCCO)cc1N1CCC2(CC1)CC2 [Compound 124] | ≤ 100 |
| C[C@@H](CO)NS(=O)(=O)c1cc(N2CCC3(CC2)CC3)c(C(=O)Nc2ccc([N+](=O)[O-])c(N3CCC(F)(F)CC3)c2)cn1 [Compound 125] | ≤ 100 |
| C[C@H](CO)NS(=O)(=O)c1cc(N2CCC3(CC2)CC3)c(C(=O)Nc2ccc([N+](=O)[O-])c(N3CCC(F)(F)CC3)c2)cn1 [Compound 126] | ≤ 100 |
| C[C@@H]1CN(c2cc(NC(=O)c3cnc(S(=O)(=O)N[C@@H](C)CO)cc3N3CCC4(CC3)CC4)ccc2[N+](=O)[O-])CCO1 [Compound 127] | ≤ 100 |
| C[C@H](CO)NS(=O)(=O)c1cc(N2CCC3(CC2)CC3)c(C(=O)Nc2ccc([N+](=O)[O-])c(N3CCO[C@H](C)C3)c2)cn1 [Compound 128] | ≤ 100 |
| C[C@@H]1CN(c2nc(NC(=O)c3cnc(NS(=O)(=O)CCO)cc3N3CCC4(CC3)CC4)ccc2[N+](=O)[O-])CCO1 [Compound 130] | ≤ 100 |
| C[C@H]1CN(c2nc(NC(=O)c3cnc(NS(=O)(=O)CCO)cc3N3CCC4(CC3)CC4)ccc2[N+](=O)[O-])CCO1 [Compound 131] | ≤ 100 |
| O=C(Nc1ccc([N+](=O)[O-])c(N2CC(F)(F)C2)n1)c1cnc(NS(=O)(=O)CCO)cc1N1CCC2(CC1)CC2 [Compound 132] | ≤ 100 |
| O=C(Nc1ccc([N+](=O)[O-])c(OCCC(F)(F)F)n1)c1cnc(NS(=O)(=O)CCO)cc1N1CCC2(CC1)CC2 [Compound 133] | ≤ 100 |
| O=C(Nc1ccc([N+](=O)[O-])c(N2CCC3(CC3)C2)n1)c1cnc(NS(=O)(=O)CCO)cc1N1CCC2(CC1)CC2 [Compound 134] | ≤ 100 |
| O=C(Nc1ccc([N+](=O)[O-])c(OC2CCC2)n1)c1cnc(NS(=O)(=O)CCO)cc1N1CCC2(CC1)CC2 [Compound 135] | ≤ 100 |
| CC1(F)CCN(c2nc(NC(=O)c3cnc(NS(=O)(=O)CCO)cc3N3CCC4(CC3)CC4)ccc2[N+](=O)[O-])C1 (stereo not shown) [Compound 136] | ≤ 100 |
| O=C(Nc1ccc([N+](=O)[O-])c(N2CCC(F)CC2)n1)c1cnc(NS(=O)(=O)CCO)cc1N1CCC2(CC1)CC2 [Compound 137] | ≤ 100 |
| O=C(Nc1ccc([N+](=O)[O-])c(N2CC3CC3C2)n1)c1cnc(NS(=O)(=O)CCO)cc1N1CCC2(CC1)CC2 (stereo not shown) [Compound 138] | ≤ 100 |
| CC(C)(CO)Nc1nc(NC(=O)c2cnc(NS(=O)(=O)CCO)cc2N2CCC3(CC2)CC3)ccc1[N+](=O)[O-] [Compound 139] | ≤ 100 |
| O=C(Nc1ccc([N+](=O)[O-])c(N2CCOCC2)n1)c1cnc(NS(=O)(=O)CCO)cc1N1CCC2(CC1)CC2 [Compound 140] | ≤ 100 |
| C[C@@H](CO)S(=O)(=O)Nc1cc(N2CCC3(CC2)CC3)c(C(=O)Nc2ccc([N+](=O)[O-])c(N3CCC(F)(F)CC3)n2)cn1 [Compound 141] | ≤ 100 |
| C[C@H](CO)S(=O)(=O)Nc1cc(N2CCC3(CC2)CC3)c(C(=O)Nc2ccc([N+](=O)[O-])c(N3CCC(F)(F)CC3)n2)cn1 [Compound 142] | ≤ 100 |
| C[C@@H]1CN(c2nc(NC(=O)c3cnc(NS(=O)(=O)[C@@H](C)CO)cc3N3CCC4(CC3)CC4)ccc2[N+](=O)[O-])CCO1 [Compound 143] | ≤ 100 |
| C[C@@H]1CN(c2nc(NC(=O)c3cnc(NS(=O)(=O)[C@H](C)CO)cc3N3CCC4(CC3)CC4)ccc2[N+](=O)[O-])CCO1 [Compound 144] | ≤ 100 |
| O=C(Nc1ccc([N+](=O)[O-])c(N2CCC(F)(F)CC2)n1)c1cnc(S(=O)(=O)NCCO)cc1N1CCC2(CC1)CC2 [Compound 145] | ≤ 100 |
| C[C@@H]1CN(c2nc(NC(=O)c3cnc(S(=O)(=O)NCCO)cc3N3CCC4(CC3)CC4)ccc2[N+](=O)[O-])CCO1 [Compound 146] | ≤ 100 |
| C[C@H]1CN(c2nc(NC(=O)c3cnc(S(=O)(=O)NCCO)cc3N3CCC4(CC3)CC4)ccc2[N+](=O)[O-])CCO1 [Compound 147] | ≤ 100 |

Second part, the compound after the results:

| IC50 [nM] | Structure (SMILES) |
| --- | --- |
| ≤ 100 | O=C(Nc1ccc([N+](=O)[O-])c(N2CC(F)(F)C2)n1)c1cnc(S(=O)(=O)NCCO)cc1N1CCC2(CC1)CC2 [Compound 148] |
| ≤ 100 | O=C(Nc1ccc([N+](=O)[O-])c(OCCC(F)(F)F)n1)c1cnc(S(=O)(=O)NCCO)cc1N1CCC2(CC1)CC2 [Compound 149] |
| ≤ 100 | O=C(Nc1ccc([N+](=O)[O-])c(N2CCC3(CC3)C2)n1)c1cnc(S(=O)(=O)NCCO)cc1N1CCC2(CC1)CC2 [Compound 150] |
| ≤ 100 | O=C(Nc1ccc([N+](=O)[O-])c(OC2CCC2)n1)c1cnc(S(=O)(=O)NCCO)cc1N1CCC2(CC1)CC2 [Compound 151] |
| ≤ 100 | CC1(F)CCN(c2nc(NC(=O)c3cnc(S(=O)(=O)NCCO)cc3N3CCC4(CC3)CC4)ccc2[N+](=O)[O-])C1 (stereo not shown) [Compound 152] |
| ≤ 100 | O=C(Nc1ccc([N+](=O)[O-])c(N2CCC(F)CC2)n1)c1cnc(S(=O)(=O)NCCO)cc1N1CCC2(CC1)CC2 [Compound 153] |
| ≤ 100 | O=C(Nc1ccc([N+](=O)[O-])c(N2CC3CC3C2)n1)c1cnc(S(=O)(=O)NCCO)cc1N1CCC2(CC1)CC2 (stereo not shown) [Compound 154] |
| ≤ 100 | CC(C)(CO)Nc1nc(NC(=O)c2cnc(S(=O)(=O)NCCO)cc2N2CCC3(CC2)CC3)ccc1[N+](=O)[O-] [Compound 155] |
| ≤ 100 | O=C(Nc1ccc([N+](=O)[O-])c(N2CCOCC2)n1)c1cnc(S(=O)(=O)NCCO)cc1N1CCC2(CC1)CC2 [Compound 156] |
| ≤ 100 | C[C@@H](CO)NS(=O)(=O)c1cc(N2CCC3(CC2)CC3)c(C(=O)Nc2ccc([N+](=O)[O-])c(N3CCC(F)(F)CC3)n2)cn1 [Compound 157] |
| ≤ 100 | C[C@H](CO)NS(=O)(=O)c1cc(N2CCC3(CC2)CC3)c(C(=O)Nc2ccc([N+](=O)[O-])c(N3CCC(F)(F)CC3)n2)cn1 [Compound 158] |
| ≤ 100 | C[C@@H]1CN(c2nc(NC(=O)c3cnc(S(=O)(=O)N[C@@H](C)CO)cc3N3CCC4(CC3)CC4)ccc2[N+](=O)[O-])CCO1 [Compound 159] |
| ≤ 100 | C[C@H](CO)NS(=O)(=O)c1cc(N2CCC3(CC2)CC3)c(C(=O)Nc2ccc([N+](=O)[O-])c(N3CCO[C@H](C)C3)n2)cn1 [Compound 160] |
| ≤ 100 | C[C@@H]1CN(c2nc(C(=O)Nc3ccc(NS(=O)(=O)CCO)cc3N3CCC4(CC3)CC4)ccc2[N+](=O)[O-])CCO1 [Compound 162] |
| ≤ 100 | C[C@H]1CN(c2nc(C(=O)Nc3ccc(NS(=O)(=O)CCO)cc3N3CCC4(CC3)CC4)ccc2[N+](=O)[O-])CCO1 [Compound 163] |
| ≤ 100 | O=C(Nc1ccc(NS(=O)(=O)CCO)cc1N1CCC2(CC1)CC2)c1ccc([N+](=O)[O-])c(N2CC(F)(F)C2)n1 [Compound 164] |
| ≤ 100 | O=C(Nc1ccc(NS(=O)(=O)CCO)cc1N1CCC2(CC1)CC2)c1ccc([N+](=O)[O-])c(OCCC(F)(F)F)n1 [Compound 165] |
| ≤ 100 | O=C(Nc1ccc(NS(=O)(=O)CCO)cc1N1CCC2(CC1)CC2)c1ccc([N+](=O)[O-])c(N2CCC3(CC3)C2)n1 [Compound 166] |
| ≤ 100 | O=C(Nc1ccc(NS(=O)(=O)CCO)cc1N1CCC2(CC1)CC2)c1ccc([N+](=O)[O-])c(OC2CCC2)n1 [Compound 167] |
| ≤ 100 | CC1(F)CCN(c2nc(C(=O)Nc3ccc(NS(=O)(=O)CCO)cc3N3CCC4(CC3)CC4)ccc2[N+](=O)[O-])C1 (stereo not shown) [Compound 168] |
| ≤ 100 | O=C(Nc1ccc(NS(=O)(=O)CCO)cc1N1CCC2(CC1)CC2)c1ccc([N+](=O)[O-])c(N2CCC(F)CC2)n1 [Compound 169] |
| ≤ 100 | O=C(Nc1ccc(NS(=O)(=O)CCO)cc1N1CCC2(CC1)CC2)c1ccc([N+](=O)[O-])c(N2CC3CC3C2)n1 (stereo not shown) [Compound 170] |
| ≤ 100 | CC(C)(CO)Nc1nc(C(=O)Nc2ccc(NS(=O)(=O)CCO)cc2N2CCC3(CC2)CC3)ccc1[N+](=O)[O-] [Compound 171] |
| ≤ 100 | O=C(Nc1ccc(NS(=O)(=O)CCO)cc1N1CCC2(CC1)CC2)c1ccc([N+](=O)[O-])c(N2CCOCC2)n1 [Compound 172] |
| ≤ 100 | C[C@@H](CO)S(=O)(=O)Nc1ccc(NC(=O)c2ccc([N+](=O)[O-])c(N3CCC(F)(F)CC3)n2)c(N2CCC3(CC2)CC3)c1 [Compound 173] |
| ≤ 100 | C[C@H](CO)S(=O)(=O)Nc1ccc(NC(=O)c2ccc([N+](=O)[O-])c(N3CCC(F)(F)CC3)n2)c(N2CCC3(CC2)CC3)c1 [Compound 174] |
